Assay results from US20240307415A1, “STEROID COMPOUND, AND PHARMACEUTICAL COMPOSITION THEREOF AND USE THEREOF” (JIANGSU SIMCERE PHARMACEUTICAL CO., LTD., priority 2021, published 2024).

Columns and labels:
CHS mouse model = assay: Efficacy test in CHS mouse model (FITC sensitization, right ear thickness); format: in vivo, C57BL/6N mice; conditions: 3 μg/mouse
Experimental: Construction of CHS mouse model: 6- to 8-week-old female C57BL/6N mice (Beijing Vital River Laboratory Animal Technology Co., Ltd.) were selected, and all mice were shaved off abdominal hair using a small animal hair clipper. 400 μL of the sensitizer was pipetted with a micropipette and applied evenly to the abdomen of the mice for epidermal sensitization. After application, the mice were held for 3-5 s and the solvent was allowed to evaporate from the skin as clean as possible. The specific preparation method for the sensitizer was: 0.5 g of FITC (fluorescein isothiocyanate; sigma-Aldrich) powder was weighed and fully dissolved in a solvent of 50 mL of acetone (SinoPharm reagent) and 50 mL of DBP (dibutyl phthalate; sigma-Aldrich) in equal proportion to give the sensitizer with the FITC content of 0.5%. On the 6th day after sensitization, the thickness of the right ear of the mice was measured with a dial thickness gauge as a baseline value, then a freshly prepared sensitizer was pipetted with a micropipette and applied evenly inside and outside of the right ear of the mice respectively for epidermal stimulation, and 10 μL of the sensitizer was applied on each side. 24 h after stimulation, the thickness of the right ear of the mice was measured again with a dial thickness gauge to obtain the thickness change of the right ear of the mice, A thickness of right ear=(thickness of right ear 24 h after stimulation)−(baseline value of thickness of right ear).
Therapeutic regimen for CHS model mouse: mice were divided into a blank group, a negative control group, a positive control group, and an experimental group. […] The drug was administered by one-time intraperitoneal injection 1 h before the right ear epidermal stimulation.

hERG potassium channel = hERG potassium channel (Homo sapiens (Human), UniProt Q12809); assay: hERG inhibitory activity, manual patch clamp; format: cell-based; conditions: HEK293 cells stably expressing hERG
Chain of hERG potassium channel (Q12809 whole entry): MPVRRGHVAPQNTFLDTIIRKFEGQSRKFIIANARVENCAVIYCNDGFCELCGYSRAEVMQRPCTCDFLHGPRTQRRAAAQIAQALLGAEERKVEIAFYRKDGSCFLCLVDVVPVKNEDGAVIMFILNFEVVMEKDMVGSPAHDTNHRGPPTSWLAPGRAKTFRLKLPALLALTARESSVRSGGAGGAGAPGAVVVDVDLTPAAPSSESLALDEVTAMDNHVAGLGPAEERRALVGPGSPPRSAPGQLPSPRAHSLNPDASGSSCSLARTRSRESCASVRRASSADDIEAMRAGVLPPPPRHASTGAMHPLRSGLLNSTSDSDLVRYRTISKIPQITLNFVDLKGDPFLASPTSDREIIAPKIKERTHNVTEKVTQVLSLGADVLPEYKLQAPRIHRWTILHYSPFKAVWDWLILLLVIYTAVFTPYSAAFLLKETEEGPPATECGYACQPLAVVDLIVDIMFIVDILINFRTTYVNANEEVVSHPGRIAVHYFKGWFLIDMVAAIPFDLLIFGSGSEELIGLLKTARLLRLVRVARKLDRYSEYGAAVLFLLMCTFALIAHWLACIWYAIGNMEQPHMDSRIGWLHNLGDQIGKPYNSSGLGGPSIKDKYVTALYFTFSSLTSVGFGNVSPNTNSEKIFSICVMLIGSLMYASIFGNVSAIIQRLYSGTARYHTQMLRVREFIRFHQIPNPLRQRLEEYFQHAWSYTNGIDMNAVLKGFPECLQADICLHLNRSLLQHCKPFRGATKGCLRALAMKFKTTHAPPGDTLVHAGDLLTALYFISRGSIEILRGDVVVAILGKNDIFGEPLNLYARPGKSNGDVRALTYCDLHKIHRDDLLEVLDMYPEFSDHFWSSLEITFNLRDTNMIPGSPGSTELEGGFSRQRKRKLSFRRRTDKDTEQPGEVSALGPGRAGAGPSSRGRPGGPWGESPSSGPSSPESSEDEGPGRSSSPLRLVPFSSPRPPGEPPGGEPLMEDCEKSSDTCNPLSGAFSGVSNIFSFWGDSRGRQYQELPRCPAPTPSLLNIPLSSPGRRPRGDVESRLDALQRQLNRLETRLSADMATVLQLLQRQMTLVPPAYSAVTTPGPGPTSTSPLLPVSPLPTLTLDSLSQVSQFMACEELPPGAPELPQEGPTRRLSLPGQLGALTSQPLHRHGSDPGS
Experimental: The inhibition of hERG activity by the compound of the present invention was determined using the following method.
HEK293 cells (Cat. No: K1236) stably expressing hERG ion channel were purchased from Invitrogen. The cells were cultured in a culture medium containing 85% DMEM, 10% dialyzed fetal bovine serum, 0.1 mM non-essential amino acid solution, 100 U/mL penicillin-streptomycin solution, 25 mM HEPES, 5 μg/mL blasticidin, and 400 μg/mL geneticin. When the cell density increased to 40-80% of the bottom area of the culture dish, the cells were digested with trypsin and subcultured thrice every week. Before the experiment, the cells were cultured at a density of 5×10^5 in 6-cm culture dishes, induced for 48 h with 1 μg/mL doxycycline, and then digested and inoculated on a slide for the subsequent manual patch-clamp experiment. […]
• 1) The slides carrying HEK293 cells in the culture dish were placed in the perfusion chamber of the micromanipulation stage. • 2) Appropriate cells were placed in the center of the field of view under an Olympus IX51, IX71, or IX73 inverted microscope. […] The peak value of the tail current was the magnitude of the hERG current. • 9) The hERG current used to detect the test compound was recorded continuously for 120 seconds prior to dosing to assess the stability of hERG current production by the test cells. […]

C[C@]12C=CC(=O)C=C1CC[C@@H]1[C@@H]2[C@@H](O)C[C@@]2(C)[C@H]1C[C@H]1O[C@@H](c3ccc(Cc4cc(N)c5c(c4)CCO5)cc3)O[C@]12C(=O)CO [Compound 009, (6aR,6bS,7S,8aS,8bS,10R,11aR,12aS,12bS)-10-(4-((7-amino-2,3-dihydrobenzofuran-5-yl)methyl)phenyl)-7-hydroxy-8b-(2-hydroxyacetyl)-6a,8a-dimethyl-6a,6b,7,8,8a,8b,11a,12,12a,12b-decahydro-1H-naphtho[2′,1′:4,5]indeno[1,2-d][1,3]dioxolan-4(2H)-one]
thickness of the right ear in CHS mice compared to the negative control group (CHS mouse model; one-time intraperitoneal injection 1 h before right ear stimulation, measured 24 h after stimulation): significant decrease
efficacy compared with positive reference compound a at the same dose (CHS mouse model; one-time intraperitoneal injection, CHS mice, right ear thickness): superior in efficacy to the positive reference compound a
IC50 (hERG potassium channel): > 30 µM
